The source of these data is patent publication US10894807B2 (Siemens Medical Solutions USA, Inc., priority 2011, dated 2021).

In general, Ki refers to the dissociation constant of the complex between target and ligand, obtained from inhibition or displacement.

This test concerns the target human PSMA (Homo sapiens (Human), UniProt Q04609). Briefly: Enzymatic assay for in vitro evaluation of PSMA inhibitors (fluorescent assay of PSMA activity, NAAG substrate, OPA detection of glutamate). The test is classed as biochemical.

Sequence of human PSMA (Q04609 whole entry): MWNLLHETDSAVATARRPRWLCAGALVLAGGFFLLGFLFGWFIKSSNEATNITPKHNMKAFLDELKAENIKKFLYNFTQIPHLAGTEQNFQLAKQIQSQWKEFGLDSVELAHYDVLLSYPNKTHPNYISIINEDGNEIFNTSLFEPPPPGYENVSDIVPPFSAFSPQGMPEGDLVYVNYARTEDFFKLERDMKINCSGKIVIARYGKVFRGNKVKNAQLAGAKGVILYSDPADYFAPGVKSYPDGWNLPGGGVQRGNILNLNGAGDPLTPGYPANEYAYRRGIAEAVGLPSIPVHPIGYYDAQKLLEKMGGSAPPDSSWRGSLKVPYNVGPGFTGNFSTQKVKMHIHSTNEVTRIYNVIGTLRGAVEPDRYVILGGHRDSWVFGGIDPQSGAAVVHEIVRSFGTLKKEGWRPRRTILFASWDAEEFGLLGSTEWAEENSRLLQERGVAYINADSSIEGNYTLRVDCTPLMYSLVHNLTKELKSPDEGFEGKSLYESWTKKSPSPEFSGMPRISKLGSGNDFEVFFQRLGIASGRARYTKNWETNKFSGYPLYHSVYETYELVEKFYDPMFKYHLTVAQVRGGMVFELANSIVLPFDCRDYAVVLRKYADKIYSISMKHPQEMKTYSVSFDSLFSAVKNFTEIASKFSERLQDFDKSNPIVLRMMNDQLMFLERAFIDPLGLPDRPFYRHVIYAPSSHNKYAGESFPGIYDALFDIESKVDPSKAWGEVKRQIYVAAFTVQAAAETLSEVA

Regarding `O=C(O)CCC(NC(=O)N[C@@H](Cc1ccc(NC(=O)CCC(CCC(=O)Nc2ccc(CC(NC(=O)N[C@@H](CCC(=O)O)C(=O)O)C(=O)O)cc2)(CCC(=O)Nc2ccc(C[C@H](NC(=O)NC(CCC(=O)O)C(=O)O)C(=O)O)cc2)NC(=O)CCCCn2cc(CCCF)nn2)cc1)C(=O)O)C(=O)O` (stereo partly drawn) [P285, (2S,2′S)-2,2′-(((((1S,1′S)-(((4-(3-((4-((S)-2-Carboxy-2-(3-((S)-1,3-dicarboxypropyl)ureido)ethyl)phenyl)amino)-3-oxopropyl)-4-(5-(4-(3-fluoropropyl)-1H-1,2,3-triazol-1-yl)pentanamido)heptanedioyl)bis(azanediyl))bis(4,1-phenylene))bis(1-carboxyethane-2,1-diyl))bis(azanediyl))bis(carbonyl))bis(azanediyl))dipentanedioic Acid], affinity was put at a Ki of 0.5 nM. For the compound `O=C(O)CC[C@H](NC(=O)N[C@@H](CCCCNC(=O)c1cc(C(=O)Nc2ccc(C[C@H](NC(=O)N[C@@H](CCC(=O)O)C(=O)O)C(=O)O)cc2)cc(-n2cc(CCCF)nn2)c1)C(=O)O)C(=O)O` [P267, (S)-2-(3-((S)-1-Carboxy-2-(4-(3-(((S)-5-carboxy-5-(3-((S)-1,3-dicarboxypropyl)ureido)pentyl)carbamoyl)-5-(4-(3-fluoropropyl)-1H-1,2,3-triazol-1-yl)benzamido)phenyl)ethyl)ureido)pentanedioic Acid], the “PSMA Blkg % (1.0 μM)” value stood at 82%. Consider `CC(C)(C)OC(=O)N1CCC[C@H]1COP(=O)(O)CC(CCC(=O)O)C(=O)O` (stereo partly drawn) [P201, 2-(((((S)-1-(tert-butoxycarbonyl)pyrrolidin-2-yl)methoxy)(hydroxy)phosphoryl)methyl)-pentanedioic Acid], for which the Ki was greater than 300 nM. The “PSMA Blkg % (10 μM)” value (10 μM) is 83%. As to `O=C(O)CC[C@H](NC(=O)N[C@@H](Cc1ccc(Nc2nc(-c3ccc(-n4cc(CCCF)nn4)cc3)cs2)cc1)C(=O)O)C(=O)O` [P240], the Ki was 28 nM and the “PSMA Blkg % (1.0 μM)” value was determined as 94%. Regarding `O=C(O)CC[C@H](NC(=O)NNC(=O)OCc1ccccc1)C(=O)O` [P056, (S)-2-(2-((Benzyloxy)carbonyl)hydrazinecarboxamido)pentanedioic Acid], under “compound at 10 μM”, the “PSMA Blkg % (10 μM)” value worked out at 0%. With `O=C(O)CC[C@H](NC(=O)N[C@@H](CC1CCN(C(=S)Nc2ccc(-n3cc(CCCF)nn3)cc2)CC1)C(=O)O)C(=O)O` [P250, (S)-2-(3-((S)-1-Carboxy-2-(1-((4-(4-(3-fluoropropyl)-1H-1,2,3-triazol-1-yl)phenyl)carbamothioyl)piperidin-4-yl)ethyl)ureido)pentanedioic Acid], the inhibitory constant (Ki) was 4.1 nM and the “PSMA Blkg % (1.0 μM)” value amounted to 96%. Take `O=C(O)CC[C@H](NC(=O)N[C@@H](Cc1ccc(NC(=O)Nc2ccc(C[C@H](NC(=O)N[C@@H](CCC(=O)O)C(=O)O)C(=O)O)cc2)cc1)C(=O)O)C(=O)O` [P223, (2S,2′S)-2,2′-(((((1S,1′S)-((Carbonylbis(azanediyl))bis(4,1-phenylene))bis(1-carboxyethane-2,1-diyl))bis(azanediyl))bis(carbonyl))bis(azanediyl))dipentanedioic Acid]: the Ki amounted to 1.1 nM and the “PSMA Blkg % (1.0 μM)” value was determined as 98%. For `[N-]=[N+]=Nc1ccc(C(=O)NCCCC[C@H](NC(=O)N[C@@H](CCC(=O)O)C(=O)O)C(=O)O)cc1` [P058, (S)-2-(3-((S)-5-(4-Azidobenzamido)-1-carboxypentyl)ureido)pentanedioic Acid], where the note is “compound at 10 μM”, the “PSMA Blkg % (10 μM)” value is 100%. Same read-out and setting: as for `O=C(O)CCC(C(=O)O)n1cc(COc2ccc3ccc(=O)oc3c2)nn1` (stereo not shown) [P109, 2-(4-(((2-oxo-2H-chromen-7-yl)oxy)methyl)-1H-1,2,3-triazol-1-yl)pentanedioic Acid], the figure is 24%. Same read-out and setting: as for `COc1ccc(CCCC(=O)N[C@@H](CC(=O)N[C@@H](CCC(=O)O)C(=O)O)C(=O)O)cc1` [P122, (S)-2-((S)-3-Carboxy-3-(4-(4-methoxyphenyl)butanamido)propanamido)-pentanedioic Acid], the figure is 18%. Regarding `O=C(O)CC[C@H](NC(=O)NC(CCCCNc1nc(NCCN(CCNC(=O)Cn2cc(CCCF)nn2)CCNc2ccc([N+](=O)[O-])c(NCCCCC(NC(=O)N[C@@H](CCC(=O)O)C(=O)O)C(=O)O)n2)ccc1[N+](=O)[O-])C(=O)O)C(=O)O` (stereo partly drawn) [P273, (2S,2′S)-2,2′-(((((1S,1′S)-((6,6′-((((2-(2-(4-(3-Fluoropropyl)-1H-1,2,3-triazol-1-yl)acetamido)ethyl)azanediyl)bis(ethane-2,1-diyl))bis(azanediyl))bis(3-nitropyridine-6,2-diyl))bis(azanediyl))bis(1-carboxypentane-5,1-diyl))bis(azanediyl))bis(carbonyl))bis(azanediyl))dipentanedioic Acid], the inhibition constant (Ki) worked out at 0.2 nM and the “PSMA Blkg % (1.0 μM)” value is on record as 97%.

With `O=C(O)CC[C@H](NC(=O)C[C@@H](NC(=O)CCCNC(=O)OCc1ccccc1)C(=O)O)C(=O)O` [P208, (10R,14S)-3,8,12-Trioxo-1-phenyl-2-oxa-4,9,13-triazahexadecane-10,14,16-tricarboxylic Acid], the “PSMA Blkg % (10 μM)” value (10 μM) was 75%.

As for `O=C(O)CC[C@@H](C(=O)O)n1c(=O)[nH]c(=O)n([C@@H](CCCCNC(=O)OCc2ccccc2)C(=O)O)c1=O` [P084, (S)-2-(3-((S)-5-(Benzyloxycarbonylamino)-1-carboxypentyl)-2,4,6-trioxo-1,3,5-triazinan-1-yl)pentanedioic Acid], the “PSMA Blkg % (10 μM)” value (compound at 10 μM) is listed as 19%. For `O=C(O)CC[C@H](NC(=O)OCC(=O)O)C(=O)O` [P027, (S)-2-(((Carboxymethoxy)carbonyl)amino)pentanedioic Acid], the “PSMA Blkg % (10 μM)” value (compound at 10 μM) is 31%. On the same count and under the same terms, the figure for `Nc1ccc(CCCC(=O)N(O)CC(=O)N[C@@H](CCC(=O)O)C(=O)O)cc1` [P134, (S)-2-(2-(4-(4-Aminophenyl)-N-hydroxybutanamido)acetamido)pentanedioic Acid] is 37%. In turn, `CCC1(CC)C(=O)N([C@@H](CCCCNC(=O)OCc2ccccc2)C(=O)O)C(=O)N([C@@H](CCC(=O)O)C(=O)O)C1=O` [P079, (S)-2-(3-((S)-5-(Benzyloxycarbonylamino)-1-carboxypentyl)-5,5-diethyl-2,4,6-trioxotetrahydropyrimidin-1(2H)-yl)pentanedioic Acid] came in with an inhibition constant Ki of 313 nM. Take `O=NC1C(=O)N([C@@H](CCCCNC(=O)OCc2ccccc2)C(=O)O)C(=O)N([C@@H](CCC(=O)O)C(=O)O)C1=O` (stereo partly drawn) [P088, (2S)-2-(3-((S)-5-(Benzyloxycarbonylamino)-1-carboxypentyl)-5-nitroso-2,4,6-trioxotetrahydropyrimidin-1(2H)-yl)pentanedioic Acid]: the Ki is greater than 407 nM. With `Nc1ccc(/C(O)=C2\C(=O)NC(=O)N([C@@H](CCC(=O)O)C(=O)O)C2=O)cc1` [P127, (S,Z)-2-(5-((4-Aminophenyl)(hydroxy)methylene)-2,4,6-trioxotetrahydropyrimidin-1(2H)-yl)pentanedioic Acid], the “PSMA Blkg % (10 μM)” value (compound at 10 μM) stood at 10%.

In the case of “2-(4-(2-(((Benzyloxy)carbonyl)amino)-3-methoxy-3-oxopropyl)-1H-1,2,3-triazol-1-yl)pentanedioic Acid [P124]”, the “PSMA Blkg % (10 μM)” value (compound at 10 μM) turned out to be 10%. As for `O=C(O)CC[C@H](NC(=O)N[C@@H](CCCCNC(=O)Cn1cc(Cn2ccnc2[N+](=O)[O-])nn1)C(=O)O)C(=O)O` [P043, (S)-2-(3-((S)-1-Carboxy-5-(2-(4-2((2-nitro-1H-imidazo-1-yl)-methyl)-1H-1,2,3-triazol-1-yl)acetamido)pentyl)ureido)pentanedioic Acid], under “compound at 10 μM”, the “PSMA Blkg % (10 μM)” value is given as 77%. For the compound `O=C(O)CC[C@H](NC(=O)N[C@@H](Cc1ccc(NC(=O)N2CCN(C(=O)Cn3cc(CCCF)nn3)CC2)cc1)C(=O)O)C(=O)O` [P237, (S)-2-(3-((S)-1-Carboxy-2-(4-(4-(2-(4-(3-fluoropropyl)-1H-1,2,3-triazol-1-yl)acetyl)piperazine-1-carboxamido)phenyl)ethyl)ureido)pentanedioic Acid], the Ki was 3.8 nM and the “PSMA Blkg % (1.0 μM)” value amounted to 100%.

With `O=C(O)CC[C@H](NC(=O)C[C@@H](NC(=O)c1ccc(F)nc1)C(=O)O)C(=O)O` [P213, (S)-2-((R)-3-Carboxy-3-(6-fluoronicotinamido)propanamido)pentanedioic Acid], the “PSMA Blkg % (10 μM)” value (10 μM) is recorded as 33%. With `[N-]=[N+]=NCCCC(=O)Nc1ccc(C[C@H](NC(=O)N[C@@H](CCC(=O)O)C(=O)O)C(=O)O)cc1` [P062, (S)-2-(3-((S)-2-(4-(4-Azidobutaneamido)phenyl)-1-carboxyethyl)-ureido)-pentanedioic Acid], the “PSMA Blkg % (10 μM)” value (compound at 10 μM) stood at 97%. With `O=C(O)CC[C@H](NS(=O)(=O)NC(=O)OCc1ccccc1)C(=O)O` [P178, (S)-2-((N-((Benzyloxy)carbonyl)sulfamoyl)amino)pentanedioic Acid], the “PSMA Blkg % (10 μM)” value (compound at 10 μM) is given as 1%. On to `O=C(O)CC[C@@H](C(=O)O)N1C(=O)CC(=O)N([C@@H](CCCCNC(=O)c2ccc(-n3cc(CCCF)nn3)cc2)C(=O)O)C1=O` [P064, (S)-2-(3-((S)-1-Carboxy-5-(4-(4-(3-fluoropropyl)-1H-1,2,3-triazol-1-yl)benzamido)pentyl)-2,4,6-trioxotetrahydropyrimidin-1(2H)-yl)pentanedioic Acid], for which the “PSMA Blkg % (10 μM)” value (compound at 10 μM) is reported as 46%. As to `O=C(O)CC[C@@H](NC(=O)N[C@@H](CCCCNC(=O)c1cc(C(=O)NCCCC[C@H](NC(=O)N[C@H](CCC(=O)O)C(=O)O)C(=O)O)cc(-n2cc(CCCF)nn2)c1)C(=O)O)C(=O)O` [P297, (2R,2′R)-2,2′-(((((1S,1′S)-((5-(4-(3-Fluoropropyl)-1H-1,2,3-triazol-1-yl)isophthaloyl)-bis(azanediyl))bis(1-carboxypentane-5,1-diyl))bis(azanediyl))bis(carbonyl))-bis(azanediyl))dipentanedioic Acid], the “PSMA Blkg % (1.0 μM)” value amounted to 31%. As to `O=C(O)CC[C@H](NC(=O)C[C@H](NC(=O)CCCCNC(=O)c1ccccc1)C(=O)O)C(=O)O` [P119, (S)-2-((S)-3-(5-Benzamidopentanamido)-3-carboxypropanamido)pentanedioic Acid], the “PSMA Blkg % (10 μM)” value (compound at 10 μM) is given as 26%. Still for that read-out and setting: as for `O=C(O)CC[C@H](NC(=O)N[C@@H](CCCCNC(=O)c1ccc(Cl)nc1)C(=O)O)C(=O)O` [P003, (S)-2-(3-((S)-1-Carboxy-5-(6-chloronicotinamido)pentyl)ureido)pentanedioic Acid], the figure is 99%.
